In patent publication US20230103444A1 (The Regents of the University of Colorado, a Body Corporate, priority 2020, published 2023):
pIC50: −log10 of the molar value. Read-outs that look alike come from different tables or passages of the source. Blank lines part the entries; values can stand above or below the compound they belong to.

What was measured:
cat-CHD1L ATPase = molecular target: T1, cat-CHD1L ATPase (Homo sapiens, UniProt Q86WJ1); assay: CHD1L ATPase assay with recombinant catalytic domain (cat-CHD1L); format: biochemical; conditions: for pIC50: Table 6, read-out: cat-CHD1L inhibition IC50
T1 construct: inferred from Ni-NTA / imidazole purification; made in house; host or cells: E. coli Rosetta 2 (DE3) pLysS; constructs were a gift from Helena Berglund, Karolinska Institute
T1 sequence (Q86WJ1 16-611 limits assumed): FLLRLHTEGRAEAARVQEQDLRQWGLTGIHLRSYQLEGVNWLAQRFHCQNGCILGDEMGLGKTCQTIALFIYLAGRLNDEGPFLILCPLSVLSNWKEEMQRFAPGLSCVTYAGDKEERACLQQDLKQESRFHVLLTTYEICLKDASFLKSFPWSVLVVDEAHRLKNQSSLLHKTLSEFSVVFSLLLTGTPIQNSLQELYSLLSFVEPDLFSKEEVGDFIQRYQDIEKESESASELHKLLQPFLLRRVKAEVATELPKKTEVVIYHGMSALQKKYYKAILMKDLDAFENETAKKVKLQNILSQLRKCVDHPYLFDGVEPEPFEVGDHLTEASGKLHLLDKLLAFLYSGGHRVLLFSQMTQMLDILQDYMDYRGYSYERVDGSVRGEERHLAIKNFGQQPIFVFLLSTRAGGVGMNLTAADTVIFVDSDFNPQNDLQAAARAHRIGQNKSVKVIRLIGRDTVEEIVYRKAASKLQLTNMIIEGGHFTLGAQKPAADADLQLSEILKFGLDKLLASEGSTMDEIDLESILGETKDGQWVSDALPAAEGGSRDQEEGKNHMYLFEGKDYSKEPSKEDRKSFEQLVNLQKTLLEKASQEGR
Procedure: All reactions were carried out using low volume non-binding surface 384-well plates (Corning Inc., Corning N.Y.). cat-CHD1L or fl-CHD1L (100 nM) and 200 nM c-Myc DNA or mononucelosome (Active Motif, Carlsbad, Calif.) were added to a buffer containing 50 mM Tris pH 7.5, 50 mM NaCl, 1 mM DTT, 5% glycerol, and the reaction was initiated by the addition of 10 μM ATP (New England Biolabs, Ipswich, Mass.) to a total volume of 10 μL and incubated at 37° C. for 1 h. ATPase activity was assayed by adding 500 nM of Phosphate Sensor (Life Technologies, Carlsbad, Calif.), containing labeled phosphate-binding protein, specifically labeled with the fluorophore MDCC, and measuring excitation (430 nm) and emission (450 nm) immediately on an EnVision® plate reader (PerkinElmer, Hopkinton, Mass.). An inorganic phosphate standard curve was used to convert the fluorescence to [Pi], and enzyme kinetics were determined using Prism8 (GraphPad Software, San Diego, Calif.).
Assay composition was the same as described above using cat-CHD1L, except that the reaction mixture volume was modified to accommodate addition of drug or DMSO. Using a Janus® liquid handler (PerkinElmer, Hopkinton, Mass.), a selected amount of compounds dissolved in 100% DMSO were mixed with 50 mM Tris pH 7.5, 50 mM NaCl, 1 mM DTT, 5% glycerol buffer to 200 μM in 10% DMSO. […] The negative control used was 1% DMSO and 10 mM EDTA was used as a positive control. Reactions were initiated with the addition of 10 μM ATP and incubated at 37° C. for 1 h. ATPase activity was measured by fluorescence by adding 500 nM Phosphate Sensor. cat-CHD1L was screened against a 20,000-compound diversity set from Life Chemicals (Woodbridge, Conn.) and a Kinase Inhibitor library from Selleck Chemicals (Houston, Tex.).
CHD1L Enzyme ATPase Assay. […] All reactions were carried out using low volume nonbinding surface 384-well plates (Corning Inc., Corning, N.Y.). […] The reaction was initiated by the addition of 10 μmol/L ATP (New England Biolabs, Ipswich, Mass.) to a total volume of 10 μL and incubated at 37° C. for 1 hour. ATPase activity was measured by adding 500 nmol/L of Phosphate Sensor (ThermoFisher, Waltham, Mass.) measuring excitation (430 nm) and emission (450 nm) immediately on an Envision plate reader (PerkinElmer, Waltham, Mass.). Background signal was determined by using all assay components excluding the enzyme.

HCT116 tumor organoids = assay: Tumor organoid cytotoxicity (CellTiter-Glo 3D); format: cell-based, human
Procedure: Cell based cytotoxicity dose response and combination studies. […] Plates were then incubated for 3 days before treatment.
Cell Line Tumor Organoid Culture.
Tumor Organoid Cytotoxicity.

SW620 tumor organoids = assay: Tumor organoid cytotoxicity (CellTiter-Glo 3D)
[1] = Mouse liver microsome stability; conditions: CD-1, mouse
Procedure: Microsome stability. CD-1 mouse microsomes were commercially purchased and the reactions were performed as previously described. […] The master mix was pre-incubated at 37° C. for 5 min, then 1 mM NADPH was added to start the microsomal activity reaction and maintained at 37° C. throughout the time course. Reactions were stopped at 0, 5, 15, 30, 45, and 60 min by adding 200 μL acetonitrile and analyzed by mass spectrometry. The appropriate microsome controls were also performed in the same reaction conditions.

[2] = Homo sapiens, HCT-116, 72 h, Table 6, read-out: 3 D Cytotoxicity 72 hr IC50 (μM) HCT116
[3] = Homo sapiens, SW-620, 72 h, read-out: 3 D Cytotoxicity 72 hr IC50 (μM) SW620
[4] = liver microsomes, pH 7.4, In Vitro Half-Life (Min), second series, different liver microsome preparation
[5] = Homo sapiens, HCT-116, single agent, Table 4A, read-out: Tumor Organoid Cytotoxicity IC50 (μM) HCT116
[6] = Homo sapiens, SW-620, read-out: Tumor Organoid Cytotoxicity IC50 (μM) SW620

SMILES: Cc1cc(Nc2ccc(NC(=O)Cn3ccnc3)cc2)nc(N2CCN(C)CC2)n1 [Compound 6.52]
- pIC50 (cat-CHD1L ATPase): < 4.70
- IC50 (HCT116 tumor organoids; [2]): > 20 µM
- IC50 (SW620 tumor organoids; [3]): > 20 µM

SMILES: Cc1cc(Nc2ccc(NC(=O)Cc3cc(Br)cs3)cc2)n2nc(N)nc2n1 [Compound 6.53]
- pIC50 (cat-CHD1L ATPase): < 4.70
- IC50 (HCT116 tumor organoids; [2]): > 40 µM
- IC50 (SW620 tumor organoids; [3]): > 40 µM

SMILES: Cc1cc(Oc2ccc(NC(=O)c3c[nH]c4ccccc34)cc2)nc(N2CCCC2)n1 [Compound 6.14, N-(4-((6-methyl-2-(pyrrolidin-1-yl)pyrimidin-4-yl)oxy)phenyl)-1H-indole-3-carboxamide]
- half-life at 10 μM [1, 4]: 70.4 min
- IC50 (HCT116 tumor organoids; [2]): 15.3 µM
- IC50 (HCT116 tumor organoids; [5]): 15.3 µM
- IC50 (SW620 tumor organoids; [3]): 11.1 µM
- IC50 (SW620 tumor organoids; [6]): 10.4 µM

SMILES: Cc1nc(N2CCCC2)nc(Nc2ccc(NC(=O)Cc3cccs3)cc2)c1F [Compound 6.1, N-(4-((5-fluoro-6-methyl-2-(pyrrolidin-1-yl)pyrimidin-4-yl)amino)phenyl)-2-(thiophen-2-yl)acetamide]
- half-life at 10 μM [1, 4]: 34.9 min
- IC50 (HCT116 tumor organoids; [2]): > 40 µM
- IC50 (HCT116 tumor organoids; [5]): > 30 µM
- IC50 (SW620 tumor organoids; [3]): > 40 µM
- IC50 (SW620 tumor organoids; [6]): > 40 µM

SMILES: Cc1cc(Oc2ccc(NC(=O)Cc3cccs3)cc2)nc(Cl)n1 [Compound 6.12, N-(4-((2-chloro-6-methylpyrimidin-4-yl)oxy)phenyl)-2-(thiophen-2-yl)acetamide]
- half-life at 10 μM [1, 4]: 9.3 min
- IC50 (HCT116 tumor organoids; [2]): > 40 µM
- IC50 (HCT116 tumor organoids; [5]): > 30 µM
- IC50 (SW620 tumor organoids; [3]): > 20 µM
- IC50 (SW620 tumor organoids; [6]): > 20 µM

SMILES: Cc1cc(Oc2ccc(NC(=O)Cc3cccs3)cc2)nc(N2CCCC2)n1 [Compound 6.13, N-(4-((6-methyl-2-(pyrrolidin-1-yl)pyrimidin-4-yl)oxy)phenyl)-2-(thiophen-2-yl)acetamide]
- half-life at 10 μM [1, 4]: 43.1 min
- IC50 (HCT116 tumor organoids; [2]): > 40 µM
- IC50 (HCT116 tumor organoids; [5]): > 30 µM
- IC50 (SW620 tumor organoids; [3]): > 20 µM
- IC50 (SW620 tumor organoids; [6]): > 20 µM

SMILES: Cc1cc(N2CCN(C)CC2)nc(NCc2ccc(NC(=O)Cc3cc(Br)cs3)cc2)n1 [Compound 6.45]
- pIC50 (cat-CHD1L ATPase): 5.85
- IC50 (HCT116 tumor organoids; [2]): 10.6 µM
- IC50 (SW620 tumor organoids; [3]): 27.2 µM

SMILES: Cc1cc(Nc2ccc(NC(=O)Cn3ccnc3)cc2)nc(N2CCCC2)n1 [Compound 6.50]
- pIC50 (cat-CHD1L ATPase): < 4.70
- IC50 (HCT116 tumor organoids; [2]): 26.2 µM
- IC50 (SW620 tumor organoids; [3]): > 40 µM

SMILES: Cc1nc(N2CCCC2)nc(Nc2ccc(N(C)C(=O)Cc3cccs3)cc2)c1F [Compound 6.4]
- half-life at 10 μM ([1]; microsomes, pH 7.4): 31.4 min
- IC50 (HCT116 tumor organoids; [2]): > 40 µM
- IC50 (HCT116 tumor organoids; [5]): > 30 µM
- IC50 (SW620 tumor organoids; [3]): > 40 µM
- IC50 (SW620 tumor organoids; [6]): 28.4 µM

SMILES: O=C(Cc1cccs1)Nc1ccc(Nc2nc(N3CCCC3)ncc2F)cc1 [Compound 6.2, N-(4-((5-fluoro-2-(pyrrolidin-1-yl)pyrimidin-4-yl)amino)phenyl)-2-(thiophen-2-yl)acetamide]
- half-life at 10 μM [1, 4]: 26.1 min
- IC50 (SW620 tumor organoids; [3]): > 40 µM
- IC50 (SW620 tumor organoids; [6]): > 40 µM

SMILES: COc1cnc(N2CCCC2)nc1Nc1ccc(NC(=O)Cc2cccs2)cc1 [Compound 6.10, N-(4-((5-methoxy-2-(pyrrolidin-1-yl)pyrimidin-4-yl)amino)phenyl)-2-(thiophen-2-yl)-acetamide]
- half-life at 10 μM [1, 4]: 16.7 min
- IC50 (HCT116 tumor organoids; [2]): > 40 µM
- IC50 (HCT116 tumor organoids; [5]): > 30 µM
- IC50 (SW620 tumor organoids; [3]): 24.1 µM
- IC50 (SW620 tumor organoids; [6]): 22.6 µM

More lines, main results first:

- pIC50 (cat-CHD1L ATPase): 4.94
SMILES: Cc1cc(Nc2ccc(NC(=O)Cc3cc(Br)cs3)cc2)nc(N2CCNCC2)n1 [Compound 6.40]
- IC50 (HCT116 tumor organoids; [2]): 4.8 µM
- IC50 (SW620 tumor organoids; [3]): 10.5 µM

- pIC50 (cat-CHD1L ATPase): 5.64
SMILES: Cc1cc(Nc2ccc(NC(=O)Cc3cc(Br)cs3)cc2)nc(N2CCCCC2)n1 [Compound 6.49]
- IC50 (HCT116 tumor organoids; [2]): 14.7 µM
- IC50 (SW620 tumor organoids; [3]): 17 µM

- pIC50 (cat-CHD1L ATPase): 6.10
SMILES: Cc1cc(N2CCCCC2)nc(NCc2ccc(NC(=O)Cc3cc(Br)cs3)cc2)n1 [Compound 6.47]
- IC50 (HCT116 tumor organoids; [2]): 9.3 µM
- IC50 (SW620 tumor organoids; [3]): 13.8 µM

- pIC50 (cat-CHD1L ATPase): 6.15
SMILES: Cc1cc(NCc2ccc(NC(=O)Cc3cc(Br)cs3)cc2)nc(N2CCCCC2)n1 [Compound 6.46]
- IC50 (HCT116 tumor organoids; [2]): 8.3 µM
- IC50 (SW620 tumor organoids; [3]): 12.5 µM

- pIC50 (cat-CHD1L ATPase): 5.22
SMILES: Cc1cc(Nc2ccc(NC(=O)Cn3ccnc3)cc2)nc(N2CCCCC2)n1 [Compound 6.51]
- IC50 (HCT116 tumor organoids; [2]): 15.1 µM
- IC50 (SW620 tumor organoids; [3]): 40.7 µM

- pIC50 (cat-CHD1L ATPase): 4.73
SMILES: Cc1cc(Nc2ccc(NC(=O)Cc3cc(Br)cs3)cc2)n2nc(N3CCCC3)nc2n1 [Compound 6.55]
- IC50 (HCT116 tumor organoids; [2]): > 40 µM
- IC50 (SW620 tumor organoids; [3]): > 40 µM

- pIC50 (cat-CHD1L ATPase): 5.62
SMILES: Cc1cc(NCc2ccc(NC(=O)Cc3cc(Br)cs3)cc2)nc(N2CCNCC2)n1 [Compound 6.57]
- IC50 (HCT116 tumor organoids; [2]): 10.8 µM
- IC50 (SW620 tumor organoids; [3]): 14.6 µM

- pIC50 (cat-CHD1L ATPase): 6.00
SMILES: O=C(Cc1cc(Br)cs1)Nc1ccc(Nc2cc(C(F)(F)F)nc(N3CCCC3)n2)cc1 [Compound 6.59]
- IC50 (HCT116 tumor organoids; [2]): 11.9 µM
- IC50 (SW620 tumor organoids; [3]): 14.8 µM

- pIC50 (cat-CHD1L ATPase): 5.60
SMILES: Cc1cc(NCc2ccc(NC(=O)Cc3cc(Br)cs3)cc2)n2nc(N3CCCC3)nc2n1 [Compound 6.56]
- IC50 (HCT116 tumor organoids; [2]): > 40 µM
- IC50 (SW620 tumor organoids; [3]): > 40 µM

- pIC50 (cat-CHD1L ATPase): 5.92
SMILES: Cc1cc(NCc2ccc(NC(=O)Cc3cc(Br)cs3)cc2)nc(N2CCN(C)CC2)n1 [Compound 6.44]
- IC50 (HCT116 tumor organoids; [2]): 14 µM
- IC50 (SW620 tumor organoids; [3]): 22.7 µM

- pIC50 (cat-CHD1L ATPase): 5.85
- CHD1L enzyme inhibition, in words (cat-CHD1L ATPase; recombinant cat-CHD1L): good enzyme inhibition
SMILES: O=C(Cc1cc(Br)cs1)Nc1ccc(CNc2cc(C(F)(F)F)nc(N3CCCC3)n2)cc1 [Compound 6.58]
- IC50 (HCT116 tumor organoids; Table 6, read-out: 3 D Cytotoxicity 72 hr IC50 (μM) HCT116): 7.8 µM
- IC50 (SW620 tumor organoids; read-out: 3 D Cytotoxicity 72 hr IC50 (μM) SW620, Table 6): 2.2 µM

- pIC50 (cat-CHD1L ATPase): 5.35
SMILES: Cc1cc(Nc2ccc(NC(=O)Cc3cc(Br)cs3)cc2)nc(N2CCN(C)CC2)n1 [Compound 6.48]
- IC50 (HCT116 tumor organoids; [2]): 7.6 µM
- IC50 (SW620 tumor organoids; [3]): 21.8 µM
